According to publication PMC6386617 (Molecular cell, 2018):

Experiments:
[1] = target: human eIF4A1 (WT) (Homo sapiens, UniProt P60842); test: UV crosslinking of γ […]-ATP; format: biochemical; settings: 10 μM protein, 0.1 μM ATP, 37 °C (crosslinking); labelled compound
[2] = target: human eIF4A1 (WT) (Homo sapiens, UniProt P60842, F163L/I199M); test: UV crosslinking of γ […]-ATP; format: biochemical; settings: 10 μM protein, 0.1 μM ATP, 37 °C (crosslinking); labelled compound
[3] = target: eIF4A1 (19-406) (Homo sapiens, UniProt P60842 19-406); test: X-ray crystallography
Chain of eIF4A1 (19-406) (P60842 19-406): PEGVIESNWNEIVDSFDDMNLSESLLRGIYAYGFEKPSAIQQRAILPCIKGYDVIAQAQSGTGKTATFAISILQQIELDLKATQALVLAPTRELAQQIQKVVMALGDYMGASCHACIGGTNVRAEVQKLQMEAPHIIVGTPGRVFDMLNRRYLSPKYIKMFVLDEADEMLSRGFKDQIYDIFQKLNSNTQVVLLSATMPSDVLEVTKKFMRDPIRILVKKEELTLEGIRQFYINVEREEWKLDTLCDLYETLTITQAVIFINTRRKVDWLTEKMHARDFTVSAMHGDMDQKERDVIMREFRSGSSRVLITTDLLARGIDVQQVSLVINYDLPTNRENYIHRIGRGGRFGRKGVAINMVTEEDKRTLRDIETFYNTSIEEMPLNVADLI

Chain of human eIF4A1 (WT) (Homo sapiens, UniProt P60842, F163L/I199M) (P60842 2-406 F163L/I199M): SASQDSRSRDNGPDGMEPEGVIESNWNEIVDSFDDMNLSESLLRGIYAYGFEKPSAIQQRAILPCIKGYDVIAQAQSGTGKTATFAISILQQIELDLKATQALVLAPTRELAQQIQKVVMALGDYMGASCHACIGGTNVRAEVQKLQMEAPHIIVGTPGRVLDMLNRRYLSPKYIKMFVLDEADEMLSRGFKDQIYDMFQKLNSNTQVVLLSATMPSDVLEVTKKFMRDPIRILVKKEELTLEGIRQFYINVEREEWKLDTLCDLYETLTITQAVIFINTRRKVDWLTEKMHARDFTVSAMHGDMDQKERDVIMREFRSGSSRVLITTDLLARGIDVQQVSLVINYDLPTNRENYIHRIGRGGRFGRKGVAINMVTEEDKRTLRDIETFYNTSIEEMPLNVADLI
Chain of human eIF4A1 (WT) (Homo sapiens, UniProt P60842) (P60842 2-406): as the sequence (P60842 2-406 F163L/I199M) above, with L162F, M198I counted along it

Nc1ncnc2c1ncn2[C@@H]1O[C@H](COP(=O)(O)OP(=O)(O)OP(=O)(O)O)[C@@H](O)[C@H]1O [ATP]
UV crosslinking of γ 32P-ATP; TLC ATPase assay [1]: tested a variety of their biochemical properties: ATP binding, ATP hydrolysis
UV crosslinking of γ 32P-ATP; TLC ATPase assay [2]: neither single nor double mutations disrupt the basic features of eIF4A1

B1: (AG)5 polypurine RNA (ssRNA)
RNA: AGAGAGAGAG
binding result [3]: binds
